Results: US20150218212A1, “FLUORINATED EPOXYKETONE-BASED TETRAPEPTIDE COMPOUNDS AND USES THEREOF AS PROTEASOME INHIBITORS” (FLUORINOV PHARMA INC., priority 2012, published 2015)

Columns and labels:
OCI-AML-2 = test: Cell viability (MTS) assay, OCI-AML-2; assay type: cell-based; conditions: Homo sapiens, OCI-AML2; OCI-AML-2, MTS, 72 hours, mean ± standard deviation
Protocol: Human multiple myeloma cell lines 8226, H929, JJN3, KMH11, KMS11, KMS18, LP1, MM1S, OPM2 and U266 were grown in Iscove modified Dulbecco's medium (IMDM). Human leukemia cell lines K562, OCI-AML2 and U937 were cultured in RPMI-1640 medium. Primary peripheral blood mononuclear cells were isolated from multiple myeloma patients by Ficoll density gradient centrifugation and bone marrow aspirates were obtained from multiple myeloma patients at the Princess Margaret Cancer Centre of the University Health Network (UHN; Toronto, ON, Canada). Primary cells were cultured in IMDM. The collection and use of human tissue for this study was approved by the UHN institutional ethics review board. All cell culture media were obtained from the Ontario Cancer Institute Tissue Culture Media Facility (Toronto, ON, Canada) and were supplemented with 10% fetal calf serum, […] (Hyclone, Logan, Utah). All cells were grown in a humidified incubator at 37° C. with 5% CO2.
Cellular viability was primarily assessed by 3-(4,5-dimethylthiazol-2-yl)-5-(3-carboxymethoxyphenyl)-2-(4-sulfophenyl)-2H-tetrazolium (MTS) assay according to the manufacturer's instructions (Promega; Madison, Wis.). Cells were first seeded at a density of 10,000 cells per well in tissue culture-treated 96-well plates. Two hours after seeding, cells were treated with compounds for 72 hours at concentrations as indicated. As a control, cells were treated with DMSO alone in every assay plate. Following treatment and the MTS assay, cell viability was independently confirmed by reading the optical density (O.D.) at 490 nm and by exclusion of trypan blue stain (Invitrogen; Burlington, ON, Canada). The viability of primary mononuclear cells was determined by staining with Annexin V.
Table 8 summarizes the data of representative compounds of Formula I for cell viability and CT-L proteasome activity with OCI-AML-2 and KMS-11 cell lines.

SNB-75 = test: NCI screening panel, SNB-75 (CNS Cancer); assay type: cell-based, human
Protocol: (§1) Representative compounds of Formula I were screened using the National Cancer Institute (NCI) screening panel, which consists of a panel of human tumor cell lines, representing leukemia, melanoma, and cancers of the lung, colon, ovary, breast, prostate and renal system.
(§2) After 24 h, two plates of each cell line are fixed in situ with TCA, to represent a measurement of the cell population for each cell line at the time of drug addition (Tz). Experimental drugs are solubilised in dimethyl sulfoxide at 400-fold the desired final maximum test concentration and stored frozen prior to use. At the time of drug addition, an aliquot of frozen concentrate is thawed and diluted to twice the desired final maximum test concentration with complete medium containing 50 μg/mL gentamicin. Additional four, 10-fold or ½ log serial dilutions are made to provide a total of five drug concentrations plus control. Aliquots of 100 μl of these different drug dilutions are added to the appropriate microtiter wells already containing 100 μl of medium, resulting in the required final drug concentrations.
(§3) Following drug addition, the plates are incubated for an additional 48 h at 37° C., 5% CO2, 95% air, and 100% relative humidity. For adherent cells, the assay is terminated by the addition of cold TCA (trichloroacetic acid). Cells are fixed in situ by the gentle addition of 50 μl of cold 50% (w/v) TCA (final concentration, 10% TCA) and incubated for 60 minutes at 4° C. The supernatant is discarded, and the plates are washed five times with tap water and air dried. Sulforhodamine B (SRB) solution (100 μl) at 0.4% (w/v) in 1% acetic acid is added to each well, and plates are incubated for 10 minutes at room temperature. After staining, unbound dye is removed by washing five times with 1% acetic acid and the plates are air dried. Bound stain is subsequently solubilised with 10 mM trizma base, and the absorbance is read on an automated plate reader at a wavelength of 515 nm. For suspension cells, the methodology is the same except that the assay is terminated by fixing settled cells at the bottom of the wells by gently adding 50 μl of 80% TCA (final concentration, 16% TCA). Using the seven absorbance measurements [time zero, (Tz), control growth, (C), and test growth in the presence of drug at the five concentration levels (Ti)], the percentage growth is calculated at each of the drug concentrations levels. Percentage growth inhibition is calculated as: [(Ti−Tz)/(C−Tz)]×100 for concentrations for which Ti>/=Tz and [(Ti−Tz)/Tz]×100 for concentrations for which Ti<Tz.
(§4) Three dose response parameters are calculated for each experimental agent. Growth inhibition of 50% (GI50) is calculated from [(Ti−Tz)/(C−Tz)]×100=50, which is the drug concentration resulting in a 50% reduction in the net protein increase (as measured by SRB staining) in control cells during the drug incubation. The drug concentration resulting in total growth inhibition (TGI) is calculated from Ti=Tz. The LC50 (concentration of drug resulting in a 50% reduction in the measured protein at the end of the drug treatment as compared to that at the beginning) indicating a net loss of cells following treatment is calculated from [(Ti−Tz)/Tz]×100=−50. Values are calculated for each of these three parameters if the level of activity is reached. However, if the effect is not reached or is exceeded, the value for that parameter is expressed as greater or less than the maximum or minimum concentration tested.

NCI-H226 = test: NCI screening panel, NCI-H226 (Non-Small Cell Lung Cancer); assay type: cell-based, human
Protocol: as §1, §2, §3, §4

U251 = test: NCI screening panel, U251 (CNS Cancer); assay type: cell-based, human
Protocol: as §1, §2, §3, §4

SN12C = test: NCI screening panel, SN12C (Renal Cancer); assay type: cell-based, human
Protocol: as §1, §2, §3, §4

OVCAR-4 = test: NCI screening panel, OVCAR-4 (Ovarian Cancer); assay type: cell-based, human
Protocol: as §1, §2, §3, §4

NCI-H522 = test: NCI screening panel, NCI-H522 (Non-Small Cell Lung Cancer); assay type: cell-based, human
Protocol: as §1, §2, §3, §4

SF-539 = test: NCI screening panel, SF-539 (CNS Cancer); assay type: cell-based, human
Protocol: as §1, §2, §3, §4

HS 578T = test: NCI screening panel, HS 578T (Breast Cancer); assay type: cell-based, human
Protocol: as §1, §2, §3, §4

SNB-19 = test: NCI screening panel, SNB-19 (CNS Cancer); assay type: cell-based, human
Protocol: as §1, §2, §3, §4

A549/ATCC = test: NCI screening panel, A549/ATCC (Non-Small Cell Lung Cancer); assay type: cell-based, human
Protocol: as §1, §2, §3, §4

## CC(C)C[C@H](NC(=O)[C@H](COC(F)F)NC(=O)CN1CCOCC1)C(=O)N[C@@H](COC(F)F)C(=O)N[C@@H](CC(C)C)C(=O)[C@@]1(C)CO1 [Example 1, (2S)—N-[(1S)-1-(difluoromethoxymethyl)-2-[[(1S)-3-methyl-1-[(2R)-2-methyloxirane-2-carbonyl]butyl]amino]-2-oxo-ethyl]-2-[[(2S)-3-(difluoromethoxy)-2-[(2-morpholinoacetyl)amino]propanoyl]amino]-4-methyl-pentanamide]
OCI-AML-2
  IC50: 24.2 ± 7.2 nM
SNB-75
  Log10GI50: −7.66
  Log10LC50: −5.88
  Log10TGI50: −7.29
NCI-H226
  Log10GI50: −7.73
  Log10LC50: −7.07
  Log10TGI50: −7.40
U251
  Log10GI50: −7.58
  Log10LC50: >−4.00
  Log10TGI50: −6.75
SN12C
  Log10GI50: −7.31
  Log10LC50: −4.88
  Log10TGI50: −6.62
OVCAR-4
  Log10GI50: −7.77
  Log10LC50: >−4.00
  Log10TGI50: −6.60
NCI-H522
  Log10GI50: −7.96
  Log10LC50: −4.04
  Log10TGI50: −7.05
SF-539
  Log10GI50: −7.78
  Log10LC50: −6.62
  Log10TGI50: −7.35
HS 578T
  Log10GI50: −7.72
  Log10LC50: >−4.00
  Log10TGI50: −7.01
SNB-19
  Log10GI50: −7.22
  Log10LC50: >−4.00
  Log10TGI50: >−4.00
A549/ATCC
  Log10GI50: −7.46
  Log10LC50: >−4.00
  Log10TGI50: −5.49

## CC(C)C[C@H](NC(=O)[C@H](COC(F)F)NC(=O)CN1CCOCC1)C(=O)N[C@@H](Cc1ccccc1)C(=O)N[C@@H](CC(C)C)C(=O)[C@@]1(C)CO1 [Example 2, (2S)-N-[(1S)-1-benzyl-2-[[(1S)-3-methyl-1-[(2R)-2-methyloxirane-2-carbonyl]butyl]-amino]-2-oxo-ethyl]-2-[[(2S)-3-(difluoromethoxy)-2-[(2-morpholinoacetyl)amino]propanoyl]amino]-4-methyl-pentanamide]
OCI-AML-2
  IC50: 8.41 ± 2.24 nM
SNB-75
  Log10GI50: −7.75
  Log10LC50: −5.91
  Log10TGI50: −7.30
NCI-H226
  Log10GI50: −7.83
  Log10LC50: −7.12
  Log10TGI50: −7.48
U251
  Log10GI50: −7.72
  Log10LC50: −5.63
  Log10TGI50: −6.87
SN12C
  Log10GI50: −7.40
  Log10LC50: −4.92
  Log10TGI50: −6.64
OVCAR-4
  Log10GI50: −7.84
  Log10LC50: >−4.00
  Log10TGI50: −6.49
NCI-H522
  Log10GI50: <−8.00
  Log10TGI50: −7.43
SF-539
  Log10GI50: −7.87
  Log10LC50: −7.06
  Log10TGI50: −7.46
HS 578T
  Log10GI50: −7.71
  Log10TGI50: >−4.00
SNB-19
  Log10GI50: −7.18
  Log10LC50: >−4.00
  Log10TGI50: >−4.00
A549/ATCC
  Log10GI50: −7.52
  Log10LC50: >−4.00
  Log10TGI50: −5.93

## CC(C)C[C@H](NC(=O)[C@H](COC(F)F)NC(=O)CN1CCOCC1)C(=O)N[C@@H](Cc1ccccc1)C(=O)N[C@@H](Cc1ccccc1)C(=O)[C@@]1(C)CO1 [Example 3, (2S)-N-[(1S)-1-benzyl-2-[[(1S)-1-benzyl-2-[(2R)-2-methyloxiran-2-yl]-2-oxo-ethyl]amino]-2-oxo-ethyl]-2-[[(2S)-3-(difluoromethoxy)-2-[(2-morpholinoacetyl)-amino]propanoyl]amino]-4-methyl-pentan-amide]
OCI-AML-2
  IC50: 16.3 ± 5.96 nM
SNB-75
  Log10GI50: −7.66
  Log10LC50: −4.61
  Log10TGI50: −7.11
NCI-H226
  Log10GI50: <−8.00
  Log10LC50: −7.24
  Log10TGI50: −7.92
U251
  Log10GI50: <−8.00
  Log10LC50: −5.14
  Log10TGI50: −6.79
SN12C
  Log10GI50: −7.68
  Log10LC50: −6.24
  Log10TGI50: −6.85
OVCAR-4
  Log10GI50: −7.88
  Log10TGI50: >−4.00
NCI-H522
  Log10GI50: <−8.00
  Log10LC50: −6.18
  Log10TGI50: −7.55
SF-539
  Log10GI50: <−8.00
  Log10LC50: −4.07
  Log10TGI50: −7.42
HS 578T
  Log10GI50: <−8.00
  Log10LC50: >−4.00
  Log10TGI50: −7.01
SNB-19
  Log10GI50: −7.66
  Log10LC50: >−4.00
  Log10TGI50: −4.54
A549/ATCC
  Log10GI50: −7.65
  Log10LC50: >−4.00
  Log10TGI50: >−4.00

## CC(C)C[C@H](NC(=O)[C@H](COC(F)F)NC(=O)CN1CCOCC1)C(=O)N[C@@H](COC(F)F)C(=O)N[C@@H](Cc1ccccc1)C(=O)[C@@]1(C)CO1 [Example 4, (2S)-N-[(1S)-2-[[(1S)-1-benzyl-2-[(2R)-2-methyloxiran-2-yl]-2-oxo-ethyl]amino]-1-(difluoromethoxymethyl)-2-oxo-ethyl]-2-[[(2S)-3-(difluoromethoxy)-2-[(2-mor-pholinoacetyl)amino]propanoyl]amino]-4 methyl-pentanamide]
OCI-AML-2
  IC50: 54.7 ± 10.8 nM
SNB-75
  Log10GI50: −7.70
  Log10LC50: −6.25
  Log10TGI50: −7.25
NCI-H226
  Log10GI50: −7.66
  Log10LC50: −6.57
  Log10TGI50: −7.30
U251
  Log10GI50: −7.44
  Log10LC50: −4.62
  Log10TGI50: −6.48
SN12C
  Log10GI50: −7.20
  Log10LC50: −4.79
  Log10TGI50: −6.47
OVCAR-4
  Log10GI50: −7.43
  Log10LC50: >−4.00
  Log10TGI50: −6.34
NCI-H522
  Log10GI50: −7.75
  Log10LC50: −6.06
  Log10TGI50: −7.11
SF-539
  Log10GI50: −7.64
  Log10LC50: −5.26
  Log10TGI50: −7.22
HS 578T
  Log10GI50: −7.71
  Log10LC50: >−4.00
  Log10TGI50: −7.01
SNB-19
  Log10GI50: −7.14
  Log10LC50: >−4.00
  Log10TGI50: >−4.00
A549/ATCC
  Log10GI50: −7.38
  Log10LC50: >−4.00
  Log10TGI50: −4.55
